The source made the active and inactive calls.
Assays:
[1] = target: T1, Endoribonuclease toxin MazF (Escherichia coli K-12, UniProt P0AE70); assay: activation of MazEF endoribonuclease cleavage – biochemical, fluorescence, single-stranded RNA substrate, uHTS hits, dose response (AID 588481); assay type: functional
T1 sequence (P0AE70 whole entry): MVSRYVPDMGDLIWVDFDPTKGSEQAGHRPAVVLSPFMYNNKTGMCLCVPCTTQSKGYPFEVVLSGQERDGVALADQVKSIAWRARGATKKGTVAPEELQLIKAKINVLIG

[2] = target: T1, Endoribonuclease toxin MazF; assay: substrate-only fluorescence increase artefacts – biochemical, single-stranded RNase substrate, counter-screen for MazEF activator project, dose response (AID 588502); assay type: functional
[3] = target: T2, Probable nicotinate-nucleotide adenylyltransferase (Staphylococcus aureus (strain N315), UniProt P65502); assay type: functional, Staphylococcus aureus subsp. aureus N315;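 on IC50 Mean: confirmatory dose-response retesting of NadD inhibitor hits first found in an ultra-high-throughput screen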
T2 sequence (P65502 whole entry): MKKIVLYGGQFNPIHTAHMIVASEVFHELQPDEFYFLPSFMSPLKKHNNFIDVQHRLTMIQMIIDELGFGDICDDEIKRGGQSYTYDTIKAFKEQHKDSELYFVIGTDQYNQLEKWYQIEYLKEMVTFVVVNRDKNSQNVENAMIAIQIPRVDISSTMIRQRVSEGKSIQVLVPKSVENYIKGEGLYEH

[4] = target: T3, Small ubiquitin-related modifier 1 (Homo sapiens, UniProt P63165); assay: SUMO1 protein interaction blockers, potency – biochemical, fluorescence polarization, uHTS hits, dose response (AID 624382); assay type: functional; settings: read-out: IC50_Mean
T3 sequence (P63165 whole entry): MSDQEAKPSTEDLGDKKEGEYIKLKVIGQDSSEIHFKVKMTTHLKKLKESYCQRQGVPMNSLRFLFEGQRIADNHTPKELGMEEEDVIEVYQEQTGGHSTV

[5] = target: T3, Small ubiquitin-related modifier 1; assay: SUMO1 protein-protein binding blockers, potency – biochemical, FRET, dose response (AID 624383); assay type: functional; settings: read-out: IC50_Mean
[6] = target: T2, Probable nicotinate-nucleotide adenylyltransferase; assay type: functional, Staphylococcus aureus subsp. aureus N315; settings: read-out: IC50_Mean
[7] = blockade of melanocortin 4 receptor signaling – cell-based, plate reader, cherry pick, counter-screen for LGR2 antagonist project, dose response (AID 743444); assay type: functional;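 further: transfected HEK 293 cells stimulated with alpha-MSH peptide; potency of inhibitors of the alpha-MSH evoked signal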
[8] = blockers of bursicon-stimulated LGR2 cAMP reporter – cell-based, HEK293, CRE-luciferase reporter, cherry pick, set 2, dose response (AID 743343); assay type: functional;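 further: transfected cells were stimulated with diluted bursicon conditioned medium after compound addition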
cells [9] = assay type: functional
[10] = Vero E6 cell cytotoxicity, dose response, cytotoxicity control for non-replicating M. tuberculosis project, secondary assay (AID 492998); assay type: functional, VeroE6; settings: Vero C1008
[11] = bead-based luminescence quenchers, dual-tagged ARNT – biochemical, AlphaScreen, cherry-pick, artefact control for ARNT-TACC3 interaction inhibitor project, dose response (AID 651705); assay type: functional;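 further: AlphaScreen bead proximity signal that flags compounds interfering with the detection technology; potency reflects signal decrease which marks the compound as an assay artifact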
[12] = viability loss in HepG2 hepatoma cells – cell-based, ATP luminescence, cherry-pick, activator set 2, cytotoxicity control, dose response (AID 1053143); assay type: functional
[13] = target: T4, Methionyl-tRNA synthetase, putative (Trypanosoma brucei brucei, UniProt Q38C91); assay type: functional, Trypanosoma brucei brucei strain 927/4 GUTat10.1;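 further: Read-out by fluorescence polarization, run as a confirmatory high-throughput counterscreen; potency of MetRS inhibitors measured by reduced AMP formation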
T4 sequence (Q38C91 whole entry): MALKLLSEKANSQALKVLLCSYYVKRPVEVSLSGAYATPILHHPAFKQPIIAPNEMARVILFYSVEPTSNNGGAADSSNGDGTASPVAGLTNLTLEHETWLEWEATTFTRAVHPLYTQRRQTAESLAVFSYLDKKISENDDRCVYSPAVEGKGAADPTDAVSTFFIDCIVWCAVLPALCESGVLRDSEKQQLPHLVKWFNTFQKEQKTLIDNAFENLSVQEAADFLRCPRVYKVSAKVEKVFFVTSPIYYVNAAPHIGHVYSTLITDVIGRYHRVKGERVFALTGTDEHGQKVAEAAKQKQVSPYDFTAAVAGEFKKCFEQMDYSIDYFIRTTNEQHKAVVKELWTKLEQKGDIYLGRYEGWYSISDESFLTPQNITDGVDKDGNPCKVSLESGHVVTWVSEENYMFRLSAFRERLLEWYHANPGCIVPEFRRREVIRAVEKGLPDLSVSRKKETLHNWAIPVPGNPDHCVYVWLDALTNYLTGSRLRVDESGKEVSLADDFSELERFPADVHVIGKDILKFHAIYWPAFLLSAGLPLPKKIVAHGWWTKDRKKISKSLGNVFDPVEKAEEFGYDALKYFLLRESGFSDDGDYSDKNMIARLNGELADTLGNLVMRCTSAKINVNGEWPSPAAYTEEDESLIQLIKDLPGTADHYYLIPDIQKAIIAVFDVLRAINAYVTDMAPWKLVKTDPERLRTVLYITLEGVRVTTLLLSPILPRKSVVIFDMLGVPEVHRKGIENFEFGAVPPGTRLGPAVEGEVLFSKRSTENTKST

[14] = Counterscreen for inhibitors of Trypanosoma brucei methionyl tRNA synthetase (MetRS): Luminescence-based cell-based high throughput dose response assay to identify compounds that are cytotoxic to Jurkat human T lymphocyte cells.; assay type: functional
[15] = target: T5, Long-chain-fatty-acid--AMP ligase FadD28 (Mycobacterium tuberculosis, UniProt P9WQ59); assay: Fluorescence polarization aasay to screen for inhibitors that compete for the binding of FadD28 to a bisubstrate Measured in Biochemical System Using Plate Reader - 2147-01_Inhibitor_Dose_CherryPick_Activity.; assay type: functional, Mycobacterium tuberculosis H37Rv
T5 sequence (P9WQ59 whole entry): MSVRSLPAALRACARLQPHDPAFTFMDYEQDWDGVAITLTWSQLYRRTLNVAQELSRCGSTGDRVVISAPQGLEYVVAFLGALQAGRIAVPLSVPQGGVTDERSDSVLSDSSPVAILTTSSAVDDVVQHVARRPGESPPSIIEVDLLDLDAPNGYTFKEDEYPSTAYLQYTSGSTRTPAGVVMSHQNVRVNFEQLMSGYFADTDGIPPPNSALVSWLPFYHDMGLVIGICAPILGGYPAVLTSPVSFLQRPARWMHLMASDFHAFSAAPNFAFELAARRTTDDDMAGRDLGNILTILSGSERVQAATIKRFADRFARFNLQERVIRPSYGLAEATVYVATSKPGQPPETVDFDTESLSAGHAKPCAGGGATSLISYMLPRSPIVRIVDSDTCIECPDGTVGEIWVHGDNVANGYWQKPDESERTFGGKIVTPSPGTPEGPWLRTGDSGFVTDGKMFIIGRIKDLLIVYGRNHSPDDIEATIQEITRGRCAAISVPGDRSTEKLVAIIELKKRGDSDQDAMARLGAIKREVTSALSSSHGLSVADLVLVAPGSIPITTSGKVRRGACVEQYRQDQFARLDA

[16] = target: Intestinal-type alkaline phosphatase (Homo sapiens, UniProt P09923); assay: inhibition of human intestinal alkaline phosphatase – biochemical, dose response (AID 488876); assay type: functional
Intestinal-type alkaline phosphatase (Homo sapiens, UniProt P09923), sequence (P09923 whole entry): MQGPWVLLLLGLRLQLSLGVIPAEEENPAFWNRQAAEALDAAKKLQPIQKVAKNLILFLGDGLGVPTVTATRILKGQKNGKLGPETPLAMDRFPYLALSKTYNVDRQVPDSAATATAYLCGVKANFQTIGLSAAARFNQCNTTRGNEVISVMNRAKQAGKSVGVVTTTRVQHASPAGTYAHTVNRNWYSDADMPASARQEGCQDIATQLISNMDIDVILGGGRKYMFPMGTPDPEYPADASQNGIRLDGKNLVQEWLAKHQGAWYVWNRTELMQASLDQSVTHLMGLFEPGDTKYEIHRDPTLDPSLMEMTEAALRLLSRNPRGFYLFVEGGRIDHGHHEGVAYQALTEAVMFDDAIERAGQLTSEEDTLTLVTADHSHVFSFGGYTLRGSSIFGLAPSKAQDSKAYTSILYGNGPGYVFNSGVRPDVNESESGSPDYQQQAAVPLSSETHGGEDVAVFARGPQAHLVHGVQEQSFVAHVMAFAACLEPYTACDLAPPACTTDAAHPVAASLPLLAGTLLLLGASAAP

[17] = target: Intestinal-type alkaline phosphatase (Mus musculus, UniProt P24822); assay: PubChem AID 488785; assay type: functional
Intestinal-type alkaline phosphatase (Mus musculus, UniProt P24822), sequence (P24822 whole entry): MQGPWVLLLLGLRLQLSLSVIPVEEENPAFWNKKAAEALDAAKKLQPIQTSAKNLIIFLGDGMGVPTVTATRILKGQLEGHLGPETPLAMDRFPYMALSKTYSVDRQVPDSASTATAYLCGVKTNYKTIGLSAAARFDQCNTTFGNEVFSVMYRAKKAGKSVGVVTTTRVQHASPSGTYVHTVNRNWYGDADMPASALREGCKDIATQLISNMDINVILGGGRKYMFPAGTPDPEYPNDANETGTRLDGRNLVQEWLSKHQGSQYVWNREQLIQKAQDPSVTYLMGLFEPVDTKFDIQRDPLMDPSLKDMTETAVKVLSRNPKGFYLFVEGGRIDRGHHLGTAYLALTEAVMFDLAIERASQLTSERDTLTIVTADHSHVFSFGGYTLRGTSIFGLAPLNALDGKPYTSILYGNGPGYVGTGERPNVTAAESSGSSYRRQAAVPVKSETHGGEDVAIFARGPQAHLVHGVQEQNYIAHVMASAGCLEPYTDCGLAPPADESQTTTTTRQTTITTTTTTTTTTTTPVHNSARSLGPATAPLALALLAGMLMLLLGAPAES

[18] = target: T6, Alkaline phosphatase, tissue-nonspecific isozyme (Homo sapiens, UniProt P05186); assay: TNAP enzyme inhibition by screening hits, dose response, selectivity assay for mouse IAP inhibitor project, biochemical, human TNAP, uHTS hits (AID 488906); assay type: functional
T6 sequence (P05186 whole entry): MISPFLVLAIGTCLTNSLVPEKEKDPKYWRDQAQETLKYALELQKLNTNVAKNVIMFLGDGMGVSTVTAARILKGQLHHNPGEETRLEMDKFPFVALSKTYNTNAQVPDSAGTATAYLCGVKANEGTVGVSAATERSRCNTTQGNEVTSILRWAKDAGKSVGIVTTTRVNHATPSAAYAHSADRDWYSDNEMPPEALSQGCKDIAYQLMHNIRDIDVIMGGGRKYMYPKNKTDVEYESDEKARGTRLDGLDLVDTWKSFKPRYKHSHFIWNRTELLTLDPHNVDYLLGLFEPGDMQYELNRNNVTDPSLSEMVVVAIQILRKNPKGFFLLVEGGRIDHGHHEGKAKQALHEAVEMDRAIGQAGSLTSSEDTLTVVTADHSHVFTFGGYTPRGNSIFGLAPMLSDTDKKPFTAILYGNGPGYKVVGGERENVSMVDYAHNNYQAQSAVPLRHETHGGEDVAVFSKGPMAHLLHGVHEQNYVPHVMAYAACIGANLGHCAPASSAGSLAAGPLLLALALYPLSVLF

cells [19] = assay type: functional, cell-based; settings: HEK-CNG
Galanin receptor type 3 = target: T7, Galanin receptor type 3 (Homo sapiens, UniProt O60755); assay: Fluorescence-based cell-based primary high throughput dose response assay to identify antagonists of the Galanin Receptor 3 (GalR3).; assay type: functional
T7 sequence (O60755 whole entry): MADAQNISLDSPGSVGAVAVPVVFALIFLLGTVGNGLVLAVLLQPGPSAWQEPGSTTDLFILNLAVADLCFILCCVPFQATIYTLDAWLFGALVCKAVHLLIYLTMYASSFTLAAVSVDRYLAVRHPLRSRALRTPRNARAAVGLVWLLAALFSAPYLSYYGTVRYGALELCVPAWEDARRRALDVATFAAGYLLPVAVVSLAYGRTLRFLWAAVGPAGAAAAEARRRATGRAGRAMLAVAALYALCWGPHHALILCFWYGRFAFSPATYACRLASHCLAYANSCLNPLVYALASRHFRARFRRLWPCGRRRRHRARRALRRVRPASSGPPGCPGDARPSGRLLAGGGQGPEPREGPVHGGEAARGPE

[20] = T. cruzi growth inhibition in host cells, dose response, cell-based, plate reader, dry powder, set 2 (AID 652275); assay type: functional

C#CCN1c2ccccc2Sc2cccnc21
EC50 [1]: > 99 µM (inactive) | EC50 [2]: 85.6 µM (inactive)

CC(C)C[C@@H](CNCC(=O)[C@H](CC(=O)O)NC(=O)c1nc[nH]c1C(=O)N[C@H](CN)CC(C)C)NC(=O)c1[nH]cnc1C(=O)N[C@@H](Cc1ccccc1)C(=O)O
IC50 [3]: 12.4 µM (active) | IC50 [4]: 50.1 µM (inactive) | IC50 [5]: 5.92 µM (active) | IC50 [6]: 44 µM (active)

COc1ccc(-c2cc(C(=O)N3CCOCC3)no2)cc1
AC50 [7]: 8.26 µM (active) | AC50 [8]: 10.4 µM (active)

O=C(Nc1nnc(-c2ccccc2Cl)o1)c1cccnc1
IC50 (cells [9]): 8.68 µM (active) | CC50 [10]: > 20 µM (active) | AC50 [11]: 91.9 µM (active)

Cn1/c(=N\C(=O)c2ccco2)sc2cccc(F)c21
AC50 [12]: 25.3 µM (active)

Cc1ccc(NC(=O)Nc2ccc(F)c(Cl)c2)cc1
AC50 [12]: 33.1 µM (active)

COc1ccccc1NS(=O)(=O)c1cc(NC(=O)Nc2ccccc2)ccc1N1CCCCC1
IC50 [13]: 19.7 µM (inactive) | IC50 [14]: 83.3 µM (inactive)

COCCn1c(C)cc(/C=N/NC(=O)c2cc3ccccc3cc2O)c1C
AC50 [15]: 17.4 µM (active)

CCOc1ccccc1CNC(=O)CCNS(=O)(=O)c1ccc2nc(O)oc2c1
IC50 [16]: > 100 µM (inactive) | IC50 [17]: 2.65 µM (active) | IC50 [18]: 22.7 µM (active)

O=C1NC(=O)N(CCc2ccc(F)cc2)C(=O)/C1=C/NNC(=O)c1ccncc1
EC50 (cells [19]): > 29.9 µM (inactive) | IC50 (Galanin receptor type 3): > 29.9 µM (inactive)

CC(C)N1CC2(CN(Cc3ccc(F)cc3)C2)Oc2c(NC(=O)c3ccncc3)cccc2C1=O
AC50 [20]: 0.876 µM (active)
